Test results published in patent US20230045421A1 (priority 2018, published 2023).

What follows are molecules tested on HBV rcDNA (assay: HepDE19 assay with bDNA quantitation of HBV rcDNA). Details: HepDE19 assay, inhibition of formation of rcDNA; read-out: DE-19bDNA EC50.
Assay type: cell-based, hepatitis B virus
Procedure, shortened: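 Compounds, top concentration 25 μM in 8-point duplicate series, were applied to Tet-free HepDE19 cultures for 7 days. Branched-DNA quantitation of HBV rcDNA against untreated wells gave EC50 and EC90 by 4-parameter fit. Viability (CC50) came from ATP luminescence on parallel plates incubated 4 days.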

How did the EC50 turn out when `CC(c1c[nH]c(=O)c2ccccc12)N(CCO)C(=O)Nc1ccc(F)c(Cl)c1` (single isomer, unassigned) [Compound 197, 3-(3-Chloro-4-fluorophenyl)-1-(2-hydroxyethyl)-1-(1-(1-oxo-1,2-dihydroisoquinolin-4-yl)ethyl)urea] was run?
The EC50 was 0.08 µM.

With `CC(c1c[nH]c(=O)c2ccccc12)N(CCCC(=O)O)C(=O)Nc1ccc(F)c(Cl)c1` (single isomer, unassigned) [Compound 227, 4-(3-(3-Chloro-4-fluorophenyl)-1-(1-(1-oxo-1,2-dihydroisoquinolin-4-yl)ethyl)ureido)butanoic acid] as the molecule, how does the EC50 read?
The EC50 was 4.9 µM.

For `CCN(C(=O)Nc1ccc(F)c(Cl)c1)C(c1cnc(OC)c2ccccc12)C1CC1` (single isomer, unassigned) [Compound 58, 3-(3-Chloro-4-fluorophenyl)-1-(cyclopropyl(1-methoxyisoquinolin-4-yl)methyl)-1-ethylurea], which EC50 is on record?
The EC50 was 3.5 µM.

For `CC(c1cnc(NCc2nc[nH]n2)c2ccccc12)N(C)C(=O)Nc1ccc(F)c(Cl)c1` (single isomer, unassigned) [Compound 247, 1-(1-(1-(((1H-1,2,4-Triazol-3-yl)methyl)amino)isoquinolin-4-yl)ethyl)-3-(3-chloro-4-fluorophenyl)-1-methylurea], which EC50 is on record?
The EC50 was 0.39 µM.

`CCN(C(=O)Nc1ccc(F)c(Cl)c1)C(C)c1c[nH]c(=O)c2cnccc12` (single isomer, unassigned) [Compound 152, 3-(3-Chloro-4-fluorophenyl)-1-ethyl-1-(1-(1-oxo-1,2-dihydro-2,7-naphthyridin-4-yl)ethyl)urea] was tested. Which EC50 did it give?
Its EC50 is 0.15 µM.

Same assay, conditions: HepDE19 assay, inhibition of formation of relaxed circular DNA (rcDNA), bDNA quantitation; read-out: DE-19bDNA EC50

With `CC(c1c[nH]c(=O)c2c(F)cc(F)cc12)N(CCS(N)(=O)=O)C(=O)Nc1ccc(F)c(Cl)c1` (single isomer, unassigned) [Compound 390, 2-(3-(3-Chloro-4-fluorophenyl)-1-(1-(6,8-difluoro-1-oxo-1,2-dihydroisoquinolin-4-yl)ethyl)ureido) ethane-1-sulfonamide] as the molecule, how does the EC50 read?
The EC50 was 0.017 µM.

How did the EC50 turn out when `CC(C)CN(C(=O)Nc1ccc(F)c(Cl)c1)C(C)c1c[nH]c(=O)c2c(F)cc(F)cc12` (single isomer, unassigned) [Compound 372, 3-(3-Chloro-4-fluorophenyl)-1-(1-(6,8-difluoro-1-oxo-1,2-dihydroisoquinolin-4-yl)ethyl)-1-isobutylurea] was run?
Its EC50 is 0.005 µM.

Which EC50 does the source give for `CC(c1c[nH]c(=O)c2cc(F)c(F)cc12)N(C)C(=O)NCc1cc(F)c(F)c(F)c1` (single isomer, unassigned) [Compound 481, 1-(1-(6,7-Difluoro-1-oxo-1,2-dihydroisoquinolin-4-yl)ethyl)-1-methyl-3-(3,4,5-trifluorobenzyl)urea] here?
The EC50 was 0.53 µM.

For `CC(c1c[nH]c(=O)c2cc(F)ccc12)N(CCS(N)(=O)=O)C(=O)Nc1ccc(F)c(Cl)c1` (single isomer, unassigned) [Compound 383, 2-(3-(3-Chloro-4-fluorophenyl)-1-(1-(7-fluoro-1-oxo-1,2-dihydroisoquinolin-4-yl)ethyl)ureido) ethane-1-sulfonamide], which EC50 is on record?
Its EC50 is 7 µM.

With `CC(c1cn(C)c(=O)c2c(F)cccc12)N(C)C(=O)Nc1ccc(F)c(Cl)c1` (single isomer, unassigned) [Compound 358, 3-(3-Chloro-4-fluorophenyl)-1-(1-(8-fluoro-2-methyl-1-oxo-1,2-dihydroisoquinolin-4-yl)ethyl)-1-methylurea] as the molecule, how does the EC50 read?
The EC50 was 5.9 µM.

With `CC(c1c[nH]c(=O)c2c(F)c(F)ccc12)N(C)C(=O)Nc1cc(F)c(F)c(F)c1` (single isomer, unassigned) [Compound 443, 1-(1-(7,8-Difluoro-1-oxo-1,2-dihydroisoquinolin-4-yl)ethyl)-1-methyl-3-(3,4,5-trifluorophenyl)urea] as the molecule, how does the EC50 read?
The EC50 was 0.04 µM.

How did the EC50 turn out when `CC(C)CN(C(=O)Nc1ccc(F)c(Cl)c1)C(C)c1c[nH]c(=O)c2c(F)c(F)ccc12` (single isomer, unassigned) [Compound 339, 3-(3-Chloro-4-fluorophenyl)-1-(1-(7,8-difluoro-1-oxo-1,2-dihydroisoquinolin-4-yl)ethyl)-1-isobutylurea] was run?
Its EC50 is 0.005 µM.

`CC(c1c[nH]c(=O)c2c(F)c(F)ccc12)N(C)C(=O)Nc1ccc(F)c(C(F)F)c1` (single isomer, unassigned) [Compound 504, 1-(1-(7,8-Difluoro-1-oxo-1,2-dihydroisoquinolin-4-yl)ethyl)-3-(3-(difluoromethyl)-4-fluorophenyl)-1-methylurea] was tested. Which EC50 did it give?
The EC50 was 0.015 µM.

`CC(c1c[nH]c(=O)c2c(F)cc(F)cc12)N(CCCO)C(=O)Nc1ccc(F)cc1` (single isomer, unassigned) [Compound 377, 1-(1-(6,8-Difluoro-1-oxo-1,2-dihydroisoquinolin-4-yl)ethyl)-3-(4-fluorophenyl)-1-(3-hydroxypropyl) urea] was tested. Which EC50 did it give?
The EC50 was 11 µM.

Same assay, conditions: Hepatitis B virus, HepDE19, HepDE19 assay, inhibition of formation of rcDNA; read-out: DE-19bDNA EC50

Which EC50 does the source give for `CC(c1c[nH]c(=O)c2ccccc12)N(CC(N)=O)C(=O)Nc1ccc(F)c(Cl)c1` (racemic) [Compound 128, 2-(3-(3-Chloro-4-fluorophenyl)-1-(1-(1-oxo-1,2-dihydroisoquinolin-4-yl)ethyl)ureido) acetamide] here?
The EC50 was 1.5 µM.

How did the EC50 turn out when `CCN(Cc1cnc(OCCO)c2ccccc12)C(=O)Nc1ccc(F)c(Cl)c1` [Compound 29, 3-(3-Chloro-4-fluorophenyl)-1-ethyl-1-((1-(2-hydroxyethoxy)isoquinolin-4-yl)methyl)urea] was run?
The EC50 was 4.2 µM.

With `CN(Cc1cnc(OCc2ccccn2)c2ccccc12)C(=O)Nc1ccc(F)c(Cl)c1` [Compound 88, 3-(3-Chloro-4-fluorophenyl)-1-methyl-1-((1-(pyridin-2-ylmethoxy)isoquinolin-4-yl)methyl)urea] as the molecule, how does the EC50 read?
Its EC50 is 1.1 µM.

`CC(c1c[nH]c(=O)c2ccccc12)N(CCCN)C(=O)Nc1ccc(F)c(Cl)c1` (racemic) [Compound 157, 1-(3-aminopropyl)-3-(3-chloro-4-fluorophenyl)-1-(1-(1-oxo-1,2-dihydroisoquinolin-4-yl)ethyl)urea] was tested. Which EC50 did it give?
The EC50 was 23 µM.

For `CC(c1c[nH]c(=O)c2ccccc12)N(CC1CCN(C)CC1)C(=O)Nc1ccc(F)c(Cl)c1` (single isomer, unassigned) [Compound 207, 3-(3-Chloro-4-fluorophenyl)-1-((1-methylpiperidin-4-yl)methyl)-1-(1-(1-oxo-1,2-dihydroisoquinolin-4-yl)ethyl)urea], which EC50 is on record?
Its EC50 is 9 µM.

Same assay, conditions: Hepatitis B virus, HepDE19, read-out: DE-19bDNA EC50 (μM), HepDE19 assay, inhibition of formation of relaxed circular DNA (rcDNA), bDNA quantitation

With `[2H]C([2H])([2H])N(C(=O)Nc1ccc(F)c(Cl)c1)C(C)c1c[nH]c(=O)c2c(F)c(F)ccc12` (single isomer, unassigned) [Compound 473, 3-(3-Chloro-4-fluorophenyl)-1-(1-(7,8-difluoro-1-oxo-1,2-dihydroisoquinolin-4-yl)ethyl)-1-(methyl-d3)urea] as the molecule, how does the EC50 read?
Its EC50 is 0.01 µM.

Same assay, conditions: read-out: DE-19bDNA EC50; HepDE19 assay, inhibition of formation of rcDNA

Which EC50 does the source give for `CCCCN(C(=O)Nc1ccc(F)c(Cl)c1)C(C)c1c[nH]c(=O)c2ccccc12` (single isomer, unassigned) [Compound 83, 1-Butyl-3-(3-chloro-4-fluorophenyl)-1-(1-(1-oxo-1,2-dihydroisoquinolin-4-yl)ethyl)urea] here?
Its EC50 is 0.86 µM.

Same assay, conditions: read-out: DE-19bDNA EC50; HepDE19 assay, inhibition of formation of relaxed circular DNA (rcDNA), bDNA quantitation

Which EC50 does the source give for `CN(C(=O)Nc1ccc(F)c(Cl)c1)C(CO)c1c[nH]c(=O)c2ccccc12` (single isomer, unassigned) [Compound 380, 3-(3-Chloro-4-fluorophenyl)-1-(2-hydroxy-1-(1-oxo-1,2-dihydroisoquinolin-4-yl)ethyl)-1-methylurea] here?
Its EC50 is 17 µM.

`CC(c1c[nH]c(=O)c2cc(F)c(F)cc12)N(C)C(=O)Nc1ccccc1F` (single isomer, unassigned) [Compound 421, 1-(1-(6,7-Difluoro-1-oxo-1,2-dihydroisoquinolin-4-yl)ethyl)-3-(2-fluorophenyl)-1-methylurea] was tested. Which EC50 did it give?
The EC50 was 17 µM.
